The nature of series [1]: LD50 in the mouse per os (method of C. S. Weil). The following applies: in vivo, po. On the procedure: The LD50 of the compounds according to the invention was determined in the mouse per os, according to the method described by C. S. Weil (Biometrics, 8, 249, 1952).
The test system of series [2] is male hypertensive rats (SHR, Wister-Kyoto strain). The series can be described thus: Antihypertensive activity in male hypertensive rats (SHR), systolic blood pressure by tail-cuff. It counts as in vivo. The following applies: Rattus norvegicus, po, os, 0.5% methylcellulose, measured 1, 3, 5 and 7 hours after administration. Here is the method: The antihypertensive activity of the esters according to the invention was evaluated in male hypertensive rats (SHR, Wister-Kyoto strain, 15-25 weeks old). The determination of blood pressure was performed by an indirect method (M. Gerald et al., Arzneim, Forsch., 18, 1825, 1968). The animals were prewarmed in a heating chamber at a temperature of from 35° to 37° C. for a period of 15 minutes before pressure determination. The compounds tested by oral route were dissolved or suspended in a 0.5% methylcellulose solution. Controls were given only the vehicle. Systolic blood pressure and heart rate were measured 1, 3, 5 and 7 hours after drug administration by means of a tail-cuff and a pulse transducer.

Series [3] concerns methacholine induced coronary spasm. The series can be described thus: Coronary dilating activity in anesthetized normotensive rats, antagonism of methacholine induced coronary spasm. It counts as in vivo. The following applies: Rattus norvegicus, iv infusion, water:dimethylformamide 9:1. On the procedure:
Coronary dilating activity was evaluated in anesthetized normotensive rats (weighing about 500 g), as the ability to antagonize methacholine induced coronary spasm. Rats were instrumented for methacholine infusion into the coronary ostium, while spastic activity was detected as ST segment elevation in D2 ECG recording (K. Sakai et al., J. Pharm. Meth., 5, 325, 1981). The compounds tested by i.v. infusion were dissolved in water:dimethylformamide (9:1 by volume). Activity was detected as normalization of ECG tracing after compounds administration during methacholine infusion.

Usually LD50 stands for the dose at which mortality reaches 50%. By ED50 is commonly meant the dose that gives a 50% effect, or the effect in half of the subjects.

On to `COC(=O)C1=C(C)NC(C)=C(C(=O)OCCN(C)CCCC(C#N)(c2ccc(OC)c(OC)c2)C(C)C)C1c1cccc([N+](=O)[O-])c1` (centres unmarked) [Compound 2245, Methyl 2-[4-cyano-4-(3,4-dimethoxyphenyl)-5,N-dimethyl-hexylamino]-ethyl 1,4-dihydro-2,6-dimethyl-4-(3-nitrophenyl)-pyridine-3,5-dicarboxylate], for which the LD50 in series [1] is 278 mg/kg. Further, the ED25 in series [2] worked out at 6.8 mg/kg. Also, in series [3], the ED50 worked out at 0.301 mg/kg. Compound `COc1ccc(C(C#N)(CCCN(C)CC(C)OC(=O)C2=C(C)NC(C)=C(C(=O)OCC(C)C)C2c2cccc(Cl)c2Cl)C(C)C)cc1OC` (centres unmarked) [Compound 2392, Isobutyl 2-[4-cyano-4-(3,4-dimethoxyphenyl)-5,N-dimethyl-hexylamino]-1-methylethyl 1,4-dihydro-2,6-dimethyl-4-(2,3-dichlorophenyl)-pyridine-3,5-dicarboxylate] returned an ED25 in series [2] of 14.9 mg/kg. On the same count and under the same terms, next, `CCCOCCOC(=O)C1=C(C)NC(C)=C(C(=O)OC(C)CN(C)CCCC(C#N)(c2ccc(OC)c(OC)c2)C(C)C)C1c1cccc(Cl)c1Cl` (centres unmarked) [Compound 2404, 2-Propoxy-ethyl 2-[4-cyano-4-(3,4-dimethoxyphenyl)-5,N-dimethyl-hexylamino]-1-methylethyl 1,4-dihydro-2,6-dimethyl-4-(2,3-dichlorophenyl)-pyridine-3,5-dicarboxylate]: 17.8 mg/kg.

The values above are taken from US4634712A, “Antihypertensive esters of 1,4-dihydro-2,6-dimethyl-3-(alkoxycarbonyl or alkoxyalkoxycarbonyl)-4-(substituted phenyl)-pyridine-5-carboxylic acid” (Recordati S.A., priority 1984, dated 1987).
